In US11731958B2, “Carboxamide compounds and uses thereof” (Incyte Corporation, priority 2018, dated 2023):

What follows are molecules tested against HPK1 (Homo sapiens (Human), UniProt Q92918) (assay: HPK1 Kinase Binding Assay). Conditions: LanthaScreen tracer 222 binding, active HPK1, one hour at 25° C.
Method: A stock solution of 1 mM test compound was prepared in DMSO. The compound plate was prepared by 3-fold and 11-point serial dilutions. 0.1 μL of the compound in DMSO was transferred from the compound plate to the white 384 well polystyrene plates. The assay buffer contained 50 mM HEPES, pH 7.5, 0.01% Tween-20, 5 mM MgCl2, 0.01% BSA, and 5 mM DTT. 5 μL of 4 nM active HPK1 (SignalChem M23-11G) prepared in the buffer was added to the plate. The enzyme concentration given was based on the given stock concentration reported by the vender. […] After one hour incubation at 25° C., the plates were read on a PHERAstar FS plate reader (BMG Labtech). Ki values were determined.

HPK1, sequence (Q92918 1-346): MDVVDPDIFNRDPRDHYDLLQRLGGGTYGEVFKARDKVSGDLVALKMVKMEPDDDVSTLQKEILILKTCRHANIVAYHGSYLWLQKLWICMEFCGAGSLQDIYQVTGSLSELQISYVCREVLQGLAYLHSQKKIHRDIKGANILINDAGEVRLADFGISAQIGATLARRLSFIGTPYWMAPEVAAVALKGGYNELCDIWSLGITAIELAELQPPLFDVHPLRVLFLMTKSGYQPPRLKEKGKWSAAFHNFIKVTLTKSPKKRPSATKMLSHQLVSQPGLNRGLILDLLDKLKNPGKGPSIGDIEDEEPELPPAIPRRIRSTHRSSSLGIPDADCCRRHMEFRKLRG

Question: With `COc1cccc(F)c1-c1nccc(C(=O)Nc2ccc(-c3c(C)nn(C)c3C)cc2N2C[C@@H]3C[C@H]2CN3)n1` [Example 27, N-(2-((1S,4S)-2,5-Diazabicyclo[2.2.1]heptan-2-yl)-4-(1,3,5-trimethyl-1H-pyrazol-4-yl)phenyl)-2-(2-fluoro-6-methoxyphenyl)pyrimidine-4-carboxamide] as the molecule, how does the Ki read?
Answer: < 100 nM

Question: How did the Ki turn out when `COc1cccc(F)c1-c1nccc(C(=O)Nc2cc(F)c(N3CCOCC3)cc2N2C[C@@H]3C[C@H]2CN3)n1` [Example 28, N-(2-((1S,4S)-2,5-Diazabicyclo[2.2.1]heptan-2-yl)-5-fluoro-4-morpholinophenyl)-2-(2-fluoro-6-methoxyphenyl)pyrimidine-4-carboxamide] was run?
Answer: < 100 nM

Question: For `COc1cccc(F)c1-c1nccc(C(=O)Nc2cc(F)c(N3CCC3)cc2N2C[C@@H]3C[C@H]2CN3)n1` [Example 29, N-(4-(Azetidin-1-yl)-2-((1S,4S)-2,5-diazabicyclo[2.2.1]heptan-2-yl)-5-fluorophenyl)-2-(2-fluoro-6-methoxyphenyl)pyrimidine-4-carboxamide], which Ki is on record?
Answer: < 100 nM

Question: With `COc1cccc(F)c1-c1nccc(C(=O)Nc2cc(F)c(CN3CCOCC3)cc2N2C[C@@H]3C[C@H]2CN3)n1` [Example 30, N-(2-((1S,4S)-2,5-Diazabicyclo[2.2.1]heptan-2-yl)-5-fluoro-4-(morpholinomethyl)phenyl)-2-(2-fluoro-6-methoxyphenyl)pyrimidine-4-carboxamide] as the molecule, how does the Ki read?
Answer: < 100 nM
